What all share (format): in vivo
In experiment [1] the test system is Aedes aegypti strain MONHEIM. Kind of experiment: Aedes aegypti test (AEDSAE surface treatment & contact assay). The following applies: exposure 30 minutes, 24 hours after contact, read-out: efficacy (mortality); for mortality at 4 mg/m2: surface concentration 4 mg/m^2, glazed tile; for mortality at 20 mg/m2: surface concentration 20 mg/m^2, glazed tile. An outline of the steps:
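Compound dissolved in acetone (2 mg/ml) with 2000 ppm rapeseed oil methyl ester, pipetted onto glazed tile and dried. Adult mosquitoes exposed on the surface for 30 min; percent mortality scored 24 h after contact.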

The test system of another experiment is Ctenocephalides felis. Nature of the experiment: Ctenocephalides felis oral test (CTECFE Oral). As to conditions: 48 h, read-out: activity (mortality). An outline of the steps: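 Percent mortality was recorded 2 days after roughly 20 adult Ctenocephalides felis fed on treated cattle blood. The blood was warmed to 37 °C beneath a parafilm membrane, with the fleas kept at room temperature. Compound was dissolved in DMSO and diluted into the blood to test concentration.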

In experiment [2] the test system is Musca domestica strain WHO—N. Nature of the experiment: Musca domestica test (MUSCDO surface treatment & contact assay). As to conditions: exposure 30 minutes, 24 hours after contact, read-out: efficacy (mortality); for mortality at 20 mg/m2: surface concentration 20 mg/m^2, glazed tile; for mortality at 4 mg/m2: surface concentration 4 mg/m^2, glazed tile. An outline of the steps: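 Compound dissolved in acetone (2 mg/ml) with 2000 ppm rapeseed oil methyl ester and pipetted onto glazed tile; after acetone evaporation, adult flies exposed to dried surface for 30 minutes. Mortality (%) scored 24 hours after contact.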

For experiment [3], the system named is Myzus persicae. Kind of experiment: Myzus persicae oral test. The following applies: 120 h, read-out: activity (mortality). The method in brief:
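Percent mortality was recorded at day 5, where 0% means no aphids killed. Compound prepared from an acetone concentrate diluted in water and combined with IPL41 medium containing sugar was offered to mixed-stage green peach aphids, which sucked it through a parafilm seal.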

The subject of the next experiment is Rhipicephalus sanguineus. Nature of the experiment: Rhipicephalus sanguineus in-vitro contact test, adult brown dog ticks (RHIPSA Cont). The following applies: 48 h, after 48 hours, read-out: activity (efficacy: 100% means all ticks are dead or moribund); for pest or weed control at 1 µg/cm2, 100 g/ha: application rate 1 μg/cm^2 (=100 g/ha); for pest or weed control at 5 µg/cm2, 500 g/ha: application rate 5 μg/cm^2 (=500 g/ha). The method in brief: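 Mortality of adult R. sanguineus was judged 48 h after contact with acetone-applied residues on glass tube walls. Ticks that stayed immotile or moved without coordination when heated to 45–50 °C (max 5 min) counted as dead or moribund.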

Experiment [4] has as its system Myzus persicae. Nature of the experiment: Myzus persicae spray test. The following applies: in Brassica rapa, foliar, 120 h; for mortality at 500 g/ha: read-out: activity (mortality), application rate 500 g/ha, spray, Chinese cabbage leaf disks, after 5 days. The method in brief: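 Aphid mortality in % was assessed 5 days after spraying; leaf disks of Brassica pekinensis carrying mixed-instar green peach aphids were treated. Spray preparation: active compound in acetone plus dimethylformamide, diluted with emulsifier-containing water (1000 ppm).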

Results on nine compounds are retold here after patent publication US20220274947A1, “NOVEL HETEROARYL-TRIAZOLE COMPOUNDS AS PESTICIDES” (Bayer Aktiengesellschaft, priority 2019, published 2022).

With `CC(C)c1nc([C@H](C)NC(=O)c2cncc(C(F)(F)F)c2)n(-c2ccc(C#N)cn2)n1` [I-30], in experiment [1], the mortality at 4 mg/m2 was in the range of 80 to 100% and the mortality at 20 mg/m2 is 80 to 100%. In addition, the mortality at 100 ppm in the experiment with Ctenocephalides felis was determined as 100%. The mortality at 20 mg/m2 in experiment [2] lay in the range of 80 to 100%. In the experiment with Myzus persicae [3], the mortality at 4 ppm was 90%. The pest or weed control at 1 µg/cm2, 100 g/ha in the experiment on Rhipicephalus sanguineus was determined as 80%.

With `C[C@H](NC(=O)c1cc(Cl)cc(OC(F)(F)F)c1)c1ncnn1-c1cc(N)ccn1` [II-7], the mortality at 20 mg/m2 in experiment [1] and in experiment [2] was 80 to 100% throughout. Further, the mortality at 100 ppm in the experiment with Ctenocephalides felis was 100%. Further, the mortality at 4 ppm in the experiment with Myzus persicae [3] is 100%. Besides, the mortality at 500 g/ha in the experiment with Myzus persicae [4] was found to be 100%.

Consider `C[C@H](NC(=O)c1cc(Cl)cc(SC(F)F)c1)c1ncnn1-c1ccc(C#N)cn1` [II-11], for which the mortality at 4 mg/m2 in experiment [1] and in experiment [2] was 80 to 100% throughout. Moreover, the mortality at 20 mg/m2 in experiment [1] and in experiment [2] was 80 to 100% in each case. Also, the mortality at 100 ppm with Ctenocephalides felis came out at 100%. In addition, the mortality at 4 ppm in the experiment with Myzus persicae [3] came to 100%. In addition, the pest or weed control at 5 µg/cm2, 500 g/ha with Rhipicephalus sanguineus was found to be 80%.

For the compound `C[C@H](NC(=O)c1cc(Br)cc(Br)c1)c1ncnn1-c1ccc(C#N)cn1` [II-13], in experiment [1], the mortality at 4 mg/m2 lay in the range of 80 to 100% and the mortality at 20 mg/m2 was 80 to 100%. Also, the mortality at 100 ppm in the experiment on Ctenocephalides felis worked out at 100%. Besides, in experiment [2], the mortality at 4 mg/m2 was in the range of 80 to 100% and the mortality at 20 mg/m2 lay in the range of 80 to 100%. In addition, in the experiment with Myzus persicae [3], the mortality at 4 ppm worked out at 90%. Moreover, in the experiment on Rhipicephalus sanguineus, the pest or weed control at 1 µg/cm2, 100 g/ha was found to be 100% and the pest or weed control at 5 µg/cm2, 500 g/ha stood at 80%.

As to `Cc1nc([C@H](C)NC(=O)c2cc(Cl)cc(C(F)(F)F)c2)n(-c2cc(C#N)ccn2)n1` [II-18], the mortality at 100 ppm in the experiment on Ctenocephalides felis is 90%. Moreover, in experiment [2], the mortality at 4 mg/m2 was in the range of 80 to 100% and the mortality at 20 mg/m2 lay within 80 to 100%. The mortality at 4 ppm in the experiment on Myzus persicae [3] is 100%. Also, in the experiment on Rhipicephalus sanguineus, the pest or weed control at 1 µg/cm2, 100 g/ha is 100% and the pest or weed control at 5 µg/cm2, 500 g/ha came to 100%.

With `Cc1nc([C@H](C)NC(=O)c2cc(C(F)(F)F)cc(C(F)(F)F)c2)n(-c2cc(C#N)ccn2)n1` [II-19], in experiment [1], the mortality at 4 mg/m2 was in the range of 80 to 100% and the mortality at 20 mg/m2 is 80 to 100%. Besides, the mortality at 100 ppm in the experiment with Ctenocephalides felis amounted to 100%. Further, in experiment [2], the mortality at 20 mg/m2 was in the range of 80 to 100%. Also, in the experiment with Myzus persicae [3], the mortality at 0.8 ppm was 100% and the mortality at 4 ppm was 100%. Besides, in the experiment with Rhipicephalus sanguineus, the pest or weed control at 1 µg/cm2, 100 g/ha is 100% and the pest or weed control at 5 µg/cm2, 500 g/ha is 100%.

Take `C[C@H](NC(=O)c1cc(Cl)cc(C(F)(F)F)c1)c1ncnn1-c1cc(N)ccn1` [II-28]: in experiment [1], the mortality at 20 mg/m2 was 80 to 100%. Moreover, the mortality at 100 ppm with Ctenocephalides felis stood at 100%. Besides, the mortality at 20 mg/m2 in experiment [2] is 80 to 100%. Moreover, the mortality at 4 ppm with Myzus persicae [3] stood at 90%. Moreover, in the experiment with Rhipicephalus sanguineus, the pest or weed control at 1 µg/cm2, 100 g/ha is 100% and the pest or weed control at 5 µg/cm2, 500 g/ha came to 100%.

Take `C[C@H](NC(=O)c1cc(Cl)cc(OC(F)(F)F)c1)c1ncnn1-c1ncc(OC(F)F)cn1` [II-30]: in experiment [1], the mortality at 4 mg/m2 lay in the range of 80 to 100% and the mortality at 20 mg/m2 was in the range of 80 to 100%. Moreover, in the experiment with Ctenocephalides felis, the mortality at 100 ppm is 100%. In experiment [2], the mortality at 4 mg/m2 is 80 to 100% and the mortality at 20 mg/m2 fell in the range of 80 to 100%. Besides, the mortality at 4 ppm with Myzus persicae [3] came out at 100%. Further, in the experiment on Rhipicephalus sanguineus, the pest or weed control at 1 µg/cm2, 100 g/ha came out at 100% and the pest or weed control at 5 µg/cm2, 500 g/ha came to 100%.

Take `Cc1nc([C@H](C)NC(=O)c2cc(Br)cc(C(F)(F)F)c2)n(-c2ccc(C#N)cn2)n1` [II-32]: in experiment [1], the mortality at 4 mg/m2 is 80 to 100% and the mortality at 20 mg/m2 lay in the range of 80 to 100%. In addition, in experiment [2], the mortality at 4 mg/m2 was in the range of 80 to 100% and the mortality at 20 mg/m2 was in the range of 80 to 100%. Besides, in the experiment with Myzus persicae [3], the mortality at 0.8 ppm came out at 100% and the mortality at 4 ppm is 100%. Moreover, in the experiment on Rhipicephalus sanguineus, the pest or weed control at 1 µg/cm2, 100 g/ha amounted to 100% and the pest or weed control at 5 µg/cm2, 500 g/ha is 100%. The mortality at 100 g/ha in the experiment on Myzus persicae [4] (read-out: activity (mortality), application rate 100 g/ha, spray, Chinese cabbage leaf disks, after 5 days) is 100%. Further, the mortality at 500 g/ha with Myzus persicae [4] amounted to 90%.
